Consider 56 molecules from BindingDB's records for doi:10.1016/s0960-894x(00)00113-x (Kyoto University, 2000).

SMILES strings stand for the structures.

This experiment in a line: The compound was tested for its inhibitory activity against platelet aggregation.
The molecule `CC[C@@H](NC(=O)c1ccc(C(=N)N2CCC(O)CC2)cc1F)C(C)(C)C(=O)N1CCC(CC(=O)O)CC1` registered an IC50 of 24 nM.

With `CC(C)[C@@H](NC(=O)c1ccc(C(=N)N)cc1)C(C)(C)C(=O)N1CCC(CC(=O)O)CC1`, the IC50 was determined as 76 nM.

Molecule `C[C@H](NC(=O)c1ccc(CNC(=N)N)cc1)C(=O)N1CCC(C(=O)O)CC1` returned an IC50 of 708000 nM. This IC50 lies about 9300-fold higher than the previous one.

Regarding `CCCCCCOC(/C=C/c1ccc(C(=N)N)cc1)C(C)(C)C(=O)N1CCC(CC(=O)O)CC1` (stereo unspecified), the IC50 was determined as 794 nM.

Consider `C[C@H](NC(=O)c1ccc(C(=N)N)cc1)C(=O)N1CCC(C(=O)O)CC1`, for which the half-inhibitory concentration (IC50) is 110000 nM.

With `CC(C)(C(=O)N1CCC(CC(=O)O)CC1)[C@H](NC(=O)c1ccc(C(=N)N)cc1)c1ccc2ccccc2c1`, the IC50 came out at 191 nM.

`N=C(N)c1ccc(C(=O)N[C@@H](CC(=O)N2CCC(CC(=O)O)CC2)C(=O)OC2CCCCC2)cc1` had an IC50 of 1900 nM. This IC50 lies about 9.9-fold higher than the previous one.

Take `CC(C)(C(=O)N1CCC(CC(=O)O)CC1)[C@H](NC(=O)c1ccc(C(=N)N)cc1)c1cccc(O)c1`: the IC50 turned out to be 38 nM. This IC50 is about 50-fold lower than that of the molecule before.

Regarding `CC[C@@H](NC(=O)c1ccc(C(=N)N)cc1)C(C)(C)C(=O)N1CCC(CC(=O)O)CC1`, the midpoint of inhibition, the IC50, lay at 43 nM. The IC50 values of the last two molecules are within 1.5-fold of each other.

On to `CC(C)(C(=O)/C=C/c1ccc(C(=N)N)cc1)C(=O)N1CCC(CC(=O)O)CC1`, for which the IC50 worked out at 3470 nM.

In turn, `CC[C@@H](NC(=O)c1ccc(C(=N)N)cc1F)C(C)(C)C(=O)N1CCC(CC(=O)O)CC1` registered an IC50 of 31 nM.

Molecule `CCCCNC(=N)c1ccc(C(=O)N[C@H](CC)C(C)(C)C(=O)N2CCC(CC(=O)O)CC2)c(F)c1` gave an IC50 of 501 nM.

Turning to `COC(/C=C/c1ccc(C(=N)N)cc1)C(C)(C)C(=O)N1CCC(CC(=O)O)CC1` (stereo unspecified), the IC50 came to 126 nM.

In turn, `CC[C@@H](NC(=O)c1ccc(C(=N)N2CCCC2)cc1F)C(C)(C)C(=O)N1CCC(CC(=O)O)CC1` came in with an IC50 of 45 nM.

As to `C[C@@H](NC(=O)c1ccc(C(=N)N)cc1F)C(C)(C)C(=O)N1CCC(CC(=O)O)CC1`, the IC50 came to 38 nM.

In turn, `N=C(N)c1ccc(C(=O)N[C@@H](CC(=O)N2CCC(CC(=O)O)CC2)C(=O)Oc2ccccc2)cc1` had an IC50 of 4070 nM.

On to `CCOC(/C=C/c1ccc(C(=N)N)cc1)C(C)(C)C(=O)N1CCC(CC(=O)O)CC1` (stereo unspecified), for which the IC50 stood at 129 nM.

Consider `CCCC[C@@H](NC(=O)c1ccc(C(=N)N)cc1F)C(C)(C)C(=O)N1CCC(CC(=O)O)CC1`, for which it took 37 nM to reach half-maximal inhibition (IC50).

Turning to `CC(C)(C(=O)N1CCC(CC(=O)O)CC1)[C@H](NC(=O)c1ccc(C(=N)N)cc1)c1ccc(O)cc1`, the IC50 was determined as 110 nM.

On to `C=CCOC(/C=C/c1ccc(C(=N)N)cc1)C(C)(C)C(=O)N1CCC(CC(=O)O)CC1` (stereo unspecified), for which the midpoint of inhibition, the IC50, lay at 135 nM.

`CC[C@@H](NC(=O)c1ccc(C(=N)N2CCN(C)CC2)cc1F)C(C)(C)C(=O)N1CCC(CC(=O)O)CC1` returned an IC50 of 36 nM.

`CN(CC(=O)N1CCC(C(=O)O)CC1)C(=O)c1ccc(CNC(=N)N)cc1` registered an IC50 of 52500 nM.

In the case of `CC(C)(C(=O)N1CCC(CC(=O)O)CC1)[C@H](NC(=O)c1ccc(C(=N)N)cc1)c1cccc(Cl)c1`, the IC50 worked out at 126 nM. This IC50 is about 420-fold lower than that of the molecule before.

For `CC(C)(CCC(=O)c1ccc(C(=N)N)cc1)C(=O)N1CCC(CC(=O)O)CC1`, the half-maximal inhibitory concentration (IC50) was determined as 631 nM.

`CC[C@@H](NC(=O)c1ccc(C(=N)N2CCOCC2)cc1F)C(C)(C)C(=O)N1CCC(CC(=O)O)CC1` had an IC50 of 79 nM.

Turning to `CC(C)(C(=O)N1CCC(CC(=O)O)CC1)[C@H](NC(=O)c1ccc(C(=N)N)cc1)c1ccccc1`, the IC50 was 115 nM. This IC50 and that of the molecule before are within 1.5-fold of each other.

Consider `CC(C)(C(=O)N1CCC(CC(=O)O)CC1)[C@H](NC(=O)c1ccc(C(=N)N)cc1)c1ccc(Cl)cc1`, for which 331 nM corresponded to half-maximal inhibition (IC50).

In the case of `CC(C)C[C@@H](NC(=O)c1ccc(C(=N)N)cc1)C(C)(C)C(=O)N1CCC(CC(=O)O)CC1`, the half-maximal inhibitory concentration (IC50) amounted to 41 nM.

In turn, `CN(CC(=O)N1CCC(CC(=O)O)CC1)C(=O)c1ccc(C(=N)N)cc1` registered an IC50 of 7590 nM.

`C[C@H](NC(=O)c1ccc(C(=N)N)cc1)C(=O)N1CCC(CC(=O)O)CC1` yielded a half-inhibitory concentration (IC50) of 30200 nM.

As to `CN(CC(=O)N1CCC(CC(=O)O)CC1)C(=O)c1ccc(N=C(N)N)cc1`, it took 759000 nM to reach half-maximal inhibition (IC50).

`CCCC[C@@H](NC(=O)c1ccc(C(=N)N)cc1)C(C)(C)C(=O)N1CCC(CC(=O)O)CC1` displayed an IC50 of 41 nM.

For the molecule `C[C@@H](CC(=O)N1CCC(CC(=O)O)CC1)NC(=O)c1ccc(C(=N)N)cc1`, the IC50 came out at 5010 nM.

`C#CCN(C(=O)c1ccc(C(=N)N)cc1)[C@H](CCCC)C(C)(C)C(=O)N1CCC(CC(=O)O)CC1` returned an IC50 of 708 nM.

Consider `CCC[C@@H](NC(=O)c1ccc(C(=N)N)cc1)C(C)(C)C(=O)N1CCC(CC(=O)O)CC1`, for which the IC50 came out at 41 nM.

With `NC(N)=Nc1ccc(C(=O)NCCC(=O)N2CCC(C(=O)O)CC2)cc1`, it took 759000 nM to reach half-maximal inhibition (IC50).

`CN(CC(=O)N1CCC(C(=O)O)CC1)C(=O)c1ccc(N=C(N)N)cc1`: the half-inhibitory concentration (IC50) was determined as 100000 nM.

As to `N=C(N)c1ccc(C(=O)NCCC(=O)N2CCC(C(=O)O)CC2)cc1`, inhibition was half-maximal at 33100 nM (IC50).

Molecule `CC(C)[C@@H](CC(=O)N1CCC(CC(=O)O)CC1)NC(=O)c1ccc(C(=N)N)cc1` had an IC50 of 9120 nM.

The molecule `CC[C@@H](NC(=O)c1ccc(C(=N)N2CCSC2)cc1F)C(C)(C)C(=O)N1CCC(CC(=O)O)CC1` showed an IC50 of 22 nM.

As to `CN(C(=O)c1ccc(C(=N)N)cc1)[C@H](c1ccccc1)C(C)(C)C(=O)N1CCC(CC(=O)O)CC1`, half-maximal inhibition (IC50) was put at 151 nM.

`N=C(N)c1ccc(C(=O)N[C@H](CC(=O)N2CCC(CC(=O)O)CC2)c2ccccc2)cc1` registered a concentration for half-maximal inhibition (IC50) of 5250 nM.

For the molecule `C/C=C/[C@@H](NC(=O)c1ccc(C(=N)N)cc1)C(C)(C)C(=O)N1CCC(CC(=O)O)CC1`, half-maximal inhibition (IC50) required 85 nM. Against the preceding molecule, the IC50 is about 62-fold lower.

In turn, `CCCCC[C@@H](NC(=O)c1ccc(C(=N)N)cc1)C(C)(C)C(=O)N1CCC(CC(=O)O)CC1` came in with an IC50 of 79 nM.

`CC(C)(C(=O)N1CCC(CC(=O)O)CC1)C(O)/C=C/c1ccc(C(=N)N)cc1` (stereo unspecified) registered an IC50 of 302 nM. Against the preceding molecule, the IC50 is about 3.8-fold higher.

For the molecule `CC(C)(C(=O)N1CCC(CC(=O)O)CC1)[C@@H](CCc1ccccc1)NC(=O)c1ccc(C(=N)N)cc1`, the concentration for half-maximal inhibition (IC50) is 79 nM.

In turn, `CC[C@@H](NC(=O)c1ccc(C(=N)N2CCN(c3ccc(F)cc3)CC2)cc1F)C(C)(C)C(=O)N1CCC(CC(=O)O)CC1` came in with an IC50 of 40 nM. This IC50 lies about 2-fold lower than the previous one.

`N=C(N)c1ccc(C(=O)NCCC(=O)N2CCC(COC(=O)O)CC2)cc1`: the midpoint of inhibition, the IC50, lay at 18200 nM.

For `COC(=O)C1CCN(C(=O)CN(C)C(=O)c2ccc(C(=N)N)cc2)CC1`, 331000 nM corresponded to half-maximal inhibition (IC50).

The molecule `CC(C)(C(=O)N1CCC(CC(=O)O)CC1)C(/C=C/c1ccc(C(=N)N)cc1)OCc1ccccc1` (stereo unspecified) came in with an IC50 of 363 nM.

Turning to `CN(CCC(=O)N1CCC(CC(=O)O)CC1)C(=O)c1ccc(C(=N)N)cc1`, 6460 nM corresponded to half-maximal inhibition (IC50).

`COC(CCc1ccc(C(=N)N)cc1)C(C)(C)C(=O)N1CCC(CC(=O)O)CC1` (stereo unspecified) yielded an IC50 of 240 nM.

As for `C[C@@H](NC(=O)c1ccc(C(=N)N)cc1)C(C)(C)C(=O)N1CCC(CC(=O)O)CC1`, inhibition was half-maximal at 41 nM (IC50).

As to `CC(C)(C(=O)N1CCC(CC(=O)O)CC1)[C@H](NC(=O)c1ccc(C(=N)N)cc1Cl)c1ccccc1`, half-maximal inhibition (IC50) required 186 nM.

With `CC(C)(CNC(=O)c1ccc(C(=N)N)cc1)C(=O)N1CCC(CC(=O)O)CC1` [{1-[3-(4-Carbamimidoyl-benzoylamino)-2,2-dimethyl-propionyl]-piperidin-4-yl}-acetic acid], the IC50 worked out at 575 nM.

`CC(C)(/C=C/C(=O)c1ccc(C(=N)N)cc1)C(=O)N1CCC(CC(=O)O)CC1` [{1-[(E)-5-(4-Carbamimidoyl-phenyl)-2,2-dimethyl-5-oxo-pent-3-enoyl]-piperidin-4-yl}-acetic acid] showed an IC50 of 209 nM.
